What was measured:
human androgen receptor = molecular target: T1, human androgen receptor (Homo sapiens, UniProt P10275); experiment: Reporter assay of an androgen receptor responsive sequence (luciferase, transiently transfected HEK293 cells); format: cell-based; conditions: 24 hours incubation, relative to activity of 100 nM DHT, read-out: AR transcriptive activity (pEC50) (converted)
T1 construct: expressed in transfected cells; host or cells: HEK293
T1 sequence (P10275 1-920): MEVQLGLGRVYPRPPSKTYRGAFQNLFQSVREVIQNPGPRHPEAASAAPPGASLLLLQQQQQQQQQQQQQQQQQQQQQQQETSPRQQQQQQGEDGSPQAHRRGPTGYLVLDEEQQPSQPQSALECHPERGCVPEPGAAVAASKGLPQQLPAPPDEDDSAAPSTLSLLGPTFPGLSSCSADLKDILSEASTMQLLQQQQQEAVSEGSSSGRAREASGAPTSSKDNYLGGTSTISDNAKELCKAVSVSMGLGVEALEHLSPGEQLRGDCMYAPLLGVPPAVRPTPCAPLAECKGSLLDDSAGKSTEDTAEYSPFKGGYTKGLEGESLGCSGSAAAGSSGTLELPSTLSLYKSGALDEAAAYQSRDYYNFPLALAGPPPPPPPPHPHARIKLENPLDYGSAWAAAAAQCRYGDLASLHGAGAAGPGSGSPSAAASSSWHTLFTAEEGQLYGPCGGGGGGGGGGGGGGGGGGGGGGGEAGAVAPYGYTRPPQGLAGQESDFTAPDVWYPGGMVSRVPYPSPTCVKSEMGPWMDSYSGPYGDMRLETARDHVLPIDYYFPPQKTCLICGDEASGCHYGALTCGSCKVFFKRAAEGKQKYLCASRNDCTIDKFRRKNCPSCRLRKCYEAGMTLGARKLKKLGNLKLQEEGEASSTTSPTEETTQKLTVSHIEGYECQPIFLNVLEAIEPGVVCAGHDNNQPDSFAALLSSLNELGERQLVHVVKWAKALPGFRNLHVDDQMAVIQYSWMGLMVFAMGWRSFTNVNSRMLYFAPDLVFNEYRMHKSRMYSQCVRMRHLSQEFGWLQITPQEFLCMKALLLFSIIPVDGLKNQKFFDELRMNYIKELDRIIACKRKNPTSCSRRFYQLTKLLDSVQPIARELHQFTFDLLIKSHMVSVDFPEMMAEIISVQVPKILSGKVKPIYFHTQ
Outline: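 HEK293 cells transiently transfected for 3 h with ARE-firefly luciferase, full-length human AR and TK-Renilla plasmids, then exposed to compound for 24 h at 37 °C in 5% charcoal-treated FBS/DMEM. Dual-Glo luminescence read; pEC50 from 4-parameter fit relative to 100 nM DHT.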

[1] = molecular target: T2, androgen receptor (AR-LBD) (Rattus norvegicus, UniProt P15207); experiment: Evaluation of androgen receptor affinity (PolarScreen Androgen Receptor Competitor Assay Kit, Red; fluorescence polarization); conditions: 22° C. for 5 hours, relative to binding rate of 1 μM DHT, read-out: AR affinity (pEC50) (converted)
T2 construct: 5 μL of 2×AR-LBD/Fluoromone AL Red Complex contained in the kit; purchased Invitrogen
T2 sequence (P15207 651-882 limits assumed): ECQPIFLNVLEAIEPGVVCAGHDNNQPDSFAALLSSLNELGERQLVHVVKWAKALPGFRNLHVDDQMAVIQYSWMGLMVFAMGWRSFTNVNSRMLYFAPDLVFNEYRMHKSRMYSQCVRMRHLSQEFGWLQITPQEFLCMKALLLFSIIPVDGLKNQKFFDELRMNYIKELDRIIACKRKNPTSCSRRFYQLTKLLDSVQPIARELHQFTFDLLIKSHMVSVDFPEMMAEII
Outline: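 pEC50 values reflect tracer displacement from AR-LBD (Fluoromone AL Red complex) measured by fluorescence polarization after 5 h at 22° C, normalized to 1 μM DHT and fitted with a 4-parameter model.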

Structure (SMILES) | EC50 (human androgen receptor) [nM] | EC50 [1] [nM]
Cc1sc(N(Cc2cccc(OC(C)C)c2)c2ccc(C#N)cc2)nc1C(=O)NS(C)(=O)=O [Compound 585, 2-[4-cyano-N-[(3-isopropoxyphenyl)methyl]anilino]-5-methyl-N-methylsulfonyl-thiazole-4-carboxamide] | 501 | 79.4
Cc1sc(N(CCc2ccccc2F)c2ccc(C#N)cc2)nc1C(=O)NS(C)(=O)=O [Compound 80, 2-[4-cyano-N-[2-(2-fluorophenyl)ethyl]anilino]-5-methyl-N-methylsulfonyl-thiazole-4-carboxamide] | > 10000 | 316
CCc1oc(N(Cc2ccc(OC(F)F)c(F)c2)c2ccc(C#N)cc2)nc1C(=O)NS(C)(=O)=O [Compound 654, 2-[4-cyano-N-[[4-(difluoromethoxy)-3-fluoro-phenyl]methyl]anilino]-5-ethyl-N-methylsulfonyl-oxazole-4-carboxamide] | 631 | 39.8
Cc1sc(N(Cc2ccccc2SC(F)F)c2ccc(C#N)cc2)nc1C(=O)NS(C)(=O)=O [Compound 79, 2-[4-cyano-N-[[2-(difluoromethylsulfanyl)phenyl]methyl]anilino]-5-methyl-N-methylsulfonyl-thiazole-4-carboxamide] | 50.1 | 15.8
CCc1oc(N(Cc2cc(F)cc(OC(F)F)c2)c2ccc(C#N)cc2)nc1C(=O)NS(C)(=O)=O [Compound 656, 2-[4-cyano-N-[[3-(difluoromethoxy)-5-fluoro-phenyl]methyl]anilino]-5-ethyl-N-methylsulfonyl-oxazole-4-carboxamide] | 631 | 20
Cc1sc(N(Cc2ccc(-c3ccccc3F)cc2)c2ccc(C#N)cc2)nc1C(=O)NS(C)(=O)=O [Compound 590, 2-[4-cyano-N-[[4-(2-fluorophenyl)phenyl]methyl]anilino]-5-methyl-N-methylsulfonyl-thiazole-4-carboxamide] | 158 | 31.6
Cc1sc(N(Cc2cccc(F)c2)c2ccc(C#N)cc2)nc1C(=O)NS(C)(=O)=O [Compound 14, 2-[4-cyano-N-[(3-fluorophenyl)methyl]anilino]-5-methyl-N-methylsulfonyl-thiazole-4-carboxamide] | 50.1 | 79.4
Cc1sc(N(Cc2cccc(SC(F)(F)F)c2)c2ccc(C#N)cc2)nc1C(=O)NS(C)(=O)=O [Compound 57, 2-[4-cyano-N-[[3-(trifluoromethylsulfanyl)phenyl]methyl]anilino]-5-methyl-N-methylsulfonyl-thiazole-4-carboxamide] | 316 | 31.6
CS(=O)(=O)NC(=O)c1nc(N(Cc2ccc(C(F)(F)F)nc2)c2ccc(C#N)cc2)sc1Br [Compound 645, 5-bromo-2-[4-cyano-N-[[6-(trifluoromethyl)-3-pyridyl]methyl]anilino]-N-methylsulfonyl-thiazole-4-carboxamide] | 1260 | 63.1
Cc1sc(N(Cc2cccc(C(F)(F)F)c2)c2ccc(C#N)cc2)nc1C(=O)NS(C)(=O)=O [Compound 24, 2-[4-cyano-N-[[3-(trifluoromethyl)phenyl]methyl]anilino]-5-methyl-N-methylsulfonyl-thiazole-4-carboxamide] | 200 | 20
CS(=O)(=O)NC(=O)c1nc(N(Cc2ccccc2OC(F)F)c2ccc(C#N)cc2)sc1Cl [Example 275, 5-chloro-2-[4-cyano-N-[[2-(difluoromethoxy)phenyl]methyl]anilino]-N-methylsulfonyl-thiazole-4-carboxamide] | 316 | 63.1
Cc1sc(N(CCCC2CCCC2)c2ccc(C#N)cc2)nc1C(=O)NS(C)(=O)=O [Compound 485, 2-[4-cyano-N-(3-cyclopentylpropyl)anilino]-5-methyl-N-methylsulfonyl-thiazole-4-carboxamide] | 126 | 20
CCCCN(c1ccc(C#N)cc1)c1nc(C(=O)NS(C)(=O)=O)c(C)s1 [Compound 64, 2-(N-butyl-4-cyano-anilino)-5-methyl-N-methylsulfonyl-thiazole-4-carboxamide] | 2510 | 251
Cc1sc(N(Cc2ncc(F)cc2F)c2ccc(C#N)cc2)nc1C(=O)NS(C)(=O)=O [Compound 527, 2-[4-cyano-N-[(3,5-difluoro-2-pyridyl)methyl]anilino]-5-methyl-N-methylsulfonyl-thiazole-4-carboxamide] | 1000 | 501
Cc1oc(N(Cc2ccccc2)c2ccc(C#N)cc2)nc1C(=O)NS(C)(=O)=O [Compound 598, 2-(N-benzyl-4-cyano-anilino)-5-methyl-N-methylsulfonyl-oxazole-4-carboxamide] | 2000 | 251
Cc1sc(N(CCc2ccc(Cl)cc2)Cc2ccc(Cl)cc2)nc1C(=O)NS(=O)(=O)C(F)(F)F [Compound 696, 2-[2-(4-chlorophenyl)ethyl-[(4-chlorophenyl)methyl]amino]-5-methyl-N-(trifluoromethylsulfonyl)thiazole-4-carboxamide] | 631 | 200
Cc1sc(N(CCc2cccs2)Cc2ccccc2)nc1C(=O)NS(C)(=O)=O [Example 310, 2-[benzyl-[2-(2-thienyl)ethyl]amino]-5-methyl-N-methylsulfonyl-thiazole-4-carboxamide] | 2510 | 200
Cc1sc(N(Cc2ccccc2)c2ccc(C#N)cc2)nc1C(=O)NS(=O)(=O)Cc1cccnc1 [Compound 397, 2-(N-benzyl-4-cyano-anilino)-5-methyl-N-(3-pyridylmethylsulfonyl)thiazole-4-carboxamide] | 126 | 63.1
Cc1sc(N(Cc2ccsc2)c2ccc(C#N)cc2)nc1C(=O)NS(C)(=O)=O [Compound 85, 2-[4-cyano-N-(3-thienylmethyl)anilino]-5-methyl-N-methylsulfonyl-thiazole-4-carboxamide] | 316 | 200
Cc1sc(N(CCC2CCCCC2)Cc2ccc(Cl)cc2)nc1C(=O)NS(=O)(=O)C(F)(F)F [Compound 723, 2-[(4-chlorophenyl)methyl-(2-cyclohexylethyl)amino]-5-methyl-N-(trifluoromethylsulfonyl)thiazole-4-carboxamide] | > 10000 | 501
Cc1sc(N(Cc2ccc(OC(F)(F)F)cc2)c2ccc(C#N)cc2)nc1C(=O)NS(=O)(=O)Cc1ccncc1 [Compound 500, 2-[4-cyano-N-[[4-(trifluoromethoxy)phenyl]methyl]anilino]-5-methyl-N-(4-pyridylmethylsulfonyl)thiazole-4-carboxamide] | 126 | 20
Cc1sc(N(Cc2ccc(Cl)cc2)[C@H]2C[C@@H]2c2ccccc2)nc1C(=O)NS(C)(=O)=O (racemic) [Compound 150, 2-[(4-chlorophenyl)methyl-(trans-2-phenylcyclopropyl)amino]-5-methyl-N-methylsulfonyl-thiazole-4-carboxamide] | 631 | 79.4
Cc1sc(N(Cc2ccc(OC(F)(F)F)cc2)c2ccc(C#N)cc2)nc1C(=O)NS(=O)(=O)CC1CCOC1 (stereo not drawn) [Example 202, 2-[4-cyano-N-[[4-(trifluoromethoxy)phenyl]methyl]anilino]-5-methyl-N-(tetrahydrofuran-3-ylmethylsulfonyl)thiazole-4-carboxamide] | 126 | 31.6
Cc1oc(N(CCc2ccc(OC(F)(F)F)cc2)Cc2ccc(C(F)(F)F)nc2)nc1C(=O)NS(C)(=O)=O [Compound 562, 5-methyl-N-methylsulfonyl-2-[2-[4-(trifluoromethoxy)phenyl]ethyl-[[6-(trifluoromethyl)-3-pyridyl]methyl]amino]oxazole-4-carboxamide] | 794 | 39.8

Reference: US10689354B2, “Aminoazole derivative” (Teijin Pharma Limited, priority 2015, dated 2020)
